Results taken from patent publication US20130143902A1, “COMPOSITIONS AND METHODS OF TREATING A PROLIFERATIVE DISEASE WITH A QUINAZOLINONE DERIVATIVE” (GILEAD CALISTOGA LLC, priority 2011, published 2013).
“And” between values parts separate entries of the source, which are not always exact repeats. Equal entries are not always repeated. Where two headings read alike, the source gives them in different places.

What was measured:
[1] = tested on: 786-0; assay: Viability (AlamarBlue), 786-0; type: cell-based; conditions: Homo sapiens; 786-0, Renal
Experimental: (§1) For primary T-ALL samples, cell viability was determined using the BD Cell Viability kit (BD Biosciences) and fluorescent counting beads as previously described in Armstrong, F. et al., NOTCH is a key regulator of human T-cell acute leukemia initiating cell activity, Blood 113, 1730-1740 (2009). Cells were plated with MS5-DL1 stroma cells. After 72 hours following treatment, cells were harvested and stained with an APC-conjugated anti-human CD45 according to the manufacturer's instructions. For solid tumor cell lines, cellular viability was determined using the AlamarBlue kit (Invitrogen). About 10,000 cells in 100 μL of media containing 10% FBS were aliquoted into individual wells of a 96-well plate and treated with vehicle (DMSO) or compound in triplicate for 24 hours. Ten μL of AlamarBlue reagent was added to each well and incubated for 4 hours at 37° C. with 5% CO2. Fluorescence was measured with an excitation wavelength at 530 to 560 nm and emission wavelength at 590 nm using Spectramax M5 plate reader (Molecular Devices, Sunnyvale, Calif.).

[2] = tested on: primary T-ALL tumors; assay: Viability of primary T-ALL tumors; type: cell-based, human; conditions: 1.0, 2.5, and 5.0 μM, 72 hours
Experimental: Cryopreserved samples from the Columbia Presbyterian Hospital, the Erasmus MC-Sophia Children's Hospital, and the University of Padua were used. All samples were collected with informed consent and supervised by the institutes' review boards and the Acute Lymphoblastic Leukemia Strategic Scientific Committee.
as §1, with “Calif.). […]” for “Calif.).”

[3] = Mouse PK; type: in vivo; conditions: plasma, PO 20 mg/kg
Description: (§2) The pharmacokinetics of Compound A in mouse and dogs were also examined. […] The results of Tmax (time of maximum observed concentration), Cmax (maximum concentration in plasma measured), AUC (area under the curve for plasma concentration versus time), Cl (total body clearance), and Vz (volume of distribution) were summarized in Table 4. As used herein, the mark ‘-’ represents data not relevant. AUC is shown as the unit of ng*h/mL (ng=nanograms, h=hour, mL=milliliter); ng are multiplied by h, and the value is divided by the volume in mL.

[4] = tested on: LN18; assay: Viability (AlamarBlue), LN18; type: cell-based; conditions: Homo sapiens, LN-18; LN18, Glioma
Experimental: as §1

[5] = tested on: SF-295; assay: pAkt pathway inhibition, SF-295; type: cell-based; conditions: Homo sapiens; SF-295, CNS
[6] = tested on: BT549; assay: pAkt pathway inhibition, BT549; type: cell-based; conditions: Homo sapiens, BT-549; BT549, Breast
[7] = tested on: OVCAR-3; assay: Viability (AlamarBlue), OVCAR-3; type: cell-based; conditions: Homo sapiens; OVCAR-3, Ovarian
Experimental: as §1

[8] = In vivo PK (cannulated rat, IV and PO); conditions: for half-life: read-out: T½ (converted)
[9] = tested on: T Cell Malignancies; assay: Cellular viability, T cell malignancies; type: cell-based; conditions: N = 7
Description: (§3) Cellular viability and pAkt activity were used to determine effects of Compounds A, C, and D in solid tumor, B-cell malignancies, and T-cell malignancies.

[10] = tested on: Akt/PKB phosphorylation in primary T-ALL tumors; assay: Akt/PKB phosphorylation in primary T-ALL tumors; type: cell-based, human; conditions: primary T-ALL tumors from four patients
Experimental: Cell lysates (from cell lines or thymocytes) were prepared on ice in M-PER Mammalian Protein Extraction reagent (Pierce) containing a cocktail of protease and phosphatase inhibitors as described in Swat, W. et al., Essential role of PI3 Kdelta and PI3 Kgamma in thymocyte survival, Blood 107, 2415-2422 (2006). Equal amounts of total protein from lysates were separated using SDS-PAGE, transferred to PVDF membrane (Immobilon-P, Millipore). Membranes were incubated overnight incubation with appropriate primary antibodies. Bound antibodies were visualized with HRP-conjugated secondary antibodies and ECL chemistry (SuperPico West, Pierce).

[11] = tested on: U87MG; assay: Viability (AlamarBlue), U87MG; type: cell-based; conditions: Homo sapiens, U-87 MG, Glioma
Experimental: as §1

[12] = In vitro metabolism in human liver microsomes; type: in vitro ADME
[13] = tested on: B Cell Malignancies; assay: Cellular viability, B cell malignancies; type: cell-based; conditions: N = 7
Description: as §3

[14] = tested on: Solid tumor; assay: Cellular viability, solid tumor; type: cell-based; conditions: N = 14
Experimental: as §1, §3

[15] = tested on: 786-0; assay: pAkt pathway inhibition, 786-0; type: cell-based; conditions: Homo sapiens; 786-0, Renal
[16] = tested on: IGROV-1; assay: Viability (AlamarBlue), IGROV-1; type: cell-based; conditions: Homo sapiens; IGROV-1, Ovarian
Experimental: as §1

[17] = tested on: LN18; assay: pAkt pathway inhibition, LN18; type: cell-based; conditions: Homo sapiens, LN-18; LN18, Glioma
[18] = Dog PK; type: in vivo; conditions: plasma
Description: as §2

[19] = tested on: LN229; assay: Viability (AlamarBlue), LN229; type: cell-based; conditions: Homo sapiens, LN-229; LN229, Glioma
Experimental: as §1

[20] = IV 1 mg/kg, individual rats, 1 mg/kg
[21] = rat, plasma, iv, 1 mg/kg, IV 1 mg/kg, individual rats
[22] = rat, plasma, iv, 1 mg/kg, IV 1 mg/kg, mean of 3 rats
[23] = rat, plasma, po, 3 mg/kg, PO 3 mg/kg, individual rats
[24] = rat, plasma, po, 3 mg/kg, PO 3 mg/kg, mean of 3 rats
[25] = rat, plasma, po, 30 mg/kg, PO 30 mg/kg, individual rats
[26] = rat, plasma, po, 30 mg/kg, PO 30 mg/kg, mean of 3 rats

CC(Nc1ncnc2[nH]cnc12)c1nc2cccc(Cl)c2c(=O)n1-c1ccccc1 (stereo not shown) [Compound A, 2-(1-(9H-purin-6-ylamino)ethyl)-5-chloro-3-phenylquinazolin-4(3H)-one]
GI50 [1]: 5 µM
viability of tumor cells [2]: reduced viability
AUC [3]: 1500 ng·h/mL
Cmax [3]: 1280 ng/mL
Tmax [3]: 15 min
GI50 [4]: 3.5 µM
EC50 [5]: 162 nM
EC50 [6]: 34 nM
GI50 [7]: 850 nM
Vss [8, 20]: 1320 mL/kg and 1674 mL/kg
Vz [8, 20]: 5849 mL/kg and 1768 mL/kg
Bioavailability ([8]; PO 3 mg/kg, individual rats (Rat 1, 2, 3), 3 mg/kg): 81% and 37%
Cmax ([8]; PO 3 mg/kg, individual rats, 3 mg/kg): 457 ng/mL and 345 ng/mL
Bioavailability ([8]; PO 30 mg/kg, individual rats (Rat 4, 5, 6), 30 mg/kg): 138% and 128% and 87%
Cmax ([8]; PO 30 mg/kg, individual rats, 30 mg/kg): 5770 ng/mL and 4320 ng/mL
AUC ([8]; plasma, Rat, PO 3 mg/kg (Table 4)): 2000 ng·h/mL
clearance ([8]; rat, plasma, iv, 1 mg/kg, IV 1 mg/kg (Table 4)): 15.2 mL/min/kg
AUC(0-inf) [8, 21]: 1050 ng·h/mL
AUC(0-t) [8, 21]: 1040 ng·h/mL
Vd ([8]; rat, plasma, iv, 1 mg/kg, IV 1 mg/kg, individual rats, read-out: Vss): 2.64 L/kg
AUC(0-inf) [8, 22]: 1130 ng·h/mL
AUC(0-t) [8, 22]: 1100 ng·h/mL
Vd ([8]; rat, plasma, iv, 1 mg/kg, IV 1 mg/kg, mean of 3 rats, read-out: Vss): 1.88 L/kg
Vd ([8]; rat, plasma, iv, 1 mg/kg, IV 1 mg/kg, mean of 3 rats, read-out: Vz): 2.99 L/kg
Vd ([8]; rat, plasma, iv, 1 mg/kg, Rat, IV 1 mg/kg (Table 4), read-out: Vz): 2.99 L/kg
Tmax ([8]; rat, plasma, po, 3 mg/kg, PO 3 mg/kg (Table 4)): 1.3 h
Tmax [8, 23]: 1 h
Cmax ([8]; rat, plasma, po, 3 mg/kg, PO 3 mg/kg, individual rats, read-out: Cmax): 568 ng/mL
half-life [8, 23]: 174 min
AUC(0-inf) [8, 24]: 2010 ng·h/mL
AUC(0-t) [8, 24]: 2000 ng·h/mL
Bioavailability ([8]; rat, plasma, po, 3 mg/kg, PO 3 mg/kg, mean of 3 rats, read-out: Bioavailability): 59%
Cmax ([8]; rat, plasma, po, 3 mg/kg, PO 3 mg/kg, mean of 3 rats, read-out: Cmax): 456 ng/mL
Cmax ([8]; rat, plasma, po, 3 mg/kg, Rat, PO 3 mg/kg (Table 4), read-out: Cmax): 456 ng/mL
AUC(0-inf) [8, 25]: 46800 ng·h/mL
Tmax [8, 25]: 4 h
Cmax ([8]; rat, plasma, po, 30 mg/kg, PO 30 mg/kg, individual rats, read-out: Cmax): 5800 ng/mL
half-life [8, 25]: 136 min
AUC(0-inf) [8, 26]: 40000 ng·h/mL
AUC(0-t) [8, 26]: 40000 ng·h/mL
Bioavailability ([8]; rat, plasma, po, 30 mg/kg, PO 30 mg/kg, mean of 3 rats, read-out: Bioavailability): 118%
Cmax ([8]; rat, plasma, po, 30 mg/kg, PO 30 mg/kg, mean of 3 rats, read-out: Cmax): 5300 ng/mL
time at which plasma levels peaked after administration ([8]; rats, single dose, over a period of 24 hours (data not shown)): 2 to 4 h
EC50 [9]: 2400 nM
Akt/PKB phosphorylation [10]: inhibition
GI50 [11]: 2500 nM
In vitro metabolism [12]: Stable in human liver microsomes
EC50 [13]: 420 nM
EC50 [14]: 1700 nM
EC50 [15]: 44 nM
GI50 [16]: 1300 nM
EC50 [17]: 10 nM
clearance ([18]; IV 1 mg/kg): 6.08 mL/min/kg
Vd ([18]; IV 1 mg/kg, read-out: Vz): 0.891 L/kg
AUC ([18]; PO 1 mg/kg): 4450 ng·h/mL
Cmax ([18]; PO 1 mg/kg): 1040 ng/mL
Tmax ([18]; PO 1 mg/kg): 2.3 h
GI50 [19]: 3000 nM
